Experimental data as given in patent US20260137697A1, “THIAZOLO[5,4-D]PYRIMIDINE COMPOUNDS, COMPOSITIONS COMPRISING THEM AND USES THEREOF” (University de Montreal, priority 2022, published 2026).

Assays:
Type in all cases: cell-based, human
[1] = test system: pERK, RAS-mutant cancer cell lines; test: Paradoxical pERK induction across the panel of RAS-mutant cancer cell lines; conditions: in 10 of the 13 RAS-mutant cell lines tested; mild to strong induction of the pathway
Method: (§1) All cancer cell lines (A375, A101D, A2058, RKO, HT29 SK-MEL 30, IPC298, HepG2, HCT-116, Lovo, SW620, SW480, NCI-H358, NCI-H2122, Calu-6, NCIH2087, NCIH1755, NCIH1666 and Mewo) were obtained from ATCC and cultured in RPM1-1640 medium (Gibco) supplemented with 5% heat inactivated fetal bovine serum (FBS, Wisent) at 37° C. under 5% CO2. Cells were maintained in T175 flasks (Greiner). They were passaged by removing the culture medium, washing once in 10 mL of room temperature Phosphate Buffered Saline (PBS; Wisent) and incubating at 37° C. with 2 mL of 0.05% Trypsin (Thermo-Fisher). […]
After treatment, media was removed, and cells were lysed in 50 μL of 1× AlphaScreen Ultra Lysis Buffer (Perkin Elmer). […] After completion of the reactions, the signals were recorded on an EnVision plate reader (Perkin Elmer) using built in AlphaLISA® settings.
The effect of each compound dilution on the pERK signal was expressed in % inhibition and calculated as follows. […]
The ability of each compound to inhibit pERK signal was expressed as an IC50 value obtained by plotting the inhibition values for each data point of a dilution series and fitting the obtained curves using a log(agonist) versus response—variable slope (four parameters) function using GraphPadPrism (V7.0) or Dotmatics Screening Ultra platform. […]

[2] = test system: pERK, HCT116 cells; test: Phospho-ERK inhibition, AlphaLISA p-ERK 1/2, HCT-116; conditions: Table 3; for IC50: HCT116 cells (KRAS G13D), 1 h treatment; for HCT116 pERK (Ymin %): lowest % inhibition value of the pERK IC50 curve, above −20% = no paradoxical induction
Outline: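 Cells in RPMI-1640 with 5% FBS plated overnight, then treated 1 h with ten-point dilutions (10 μM to 0.33 nM, 0.5% DMSO). Lysate p-ERK1/2 (Thr202/Tyr204) read by AlphaLISA SureFire Ultra; % inhibition normalised to DMSO and 1 μM trametinib background, IC50 by four-parameter fit.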

[3] = test system: A101D cells; test: Proliferation inhibition, CellTiter-Glo, A101D; conditions: Table D-1; A101D (BRAF V600E), 3 days; read-out: Prolif. (proliferation EC50)
Method: as §1
After 3 days of incubation, the growth media were removed by aspiration and 60 μL of diluted CellTiter-Glo® reagent (10 μL CellTiter-Glo® reagent+50 μL of PBS) was added to each well. […] Luminescence signals were then acquired on a Synergy Neo2 plate reader (Biotek).
The effect of each compound dilution on the proliferation of cancer cell lines was expressed in % inhibition and calculated as follows. […]
The ability of each compound to inhibit proliferation was expressed as a EC50 value obtained by plotting the effect values for each data point of a dilution series and fitting the obtained curves using a log(agonist) versus response—variable slope (four parameters) function using GraphPadPrism (V7.0) or Dotmatics Screening Ultra platform.

SMILES | YMIN of pERK IC50 curves [1] [%] | IC50 [2] [nM] | HCT116 pERK (Ymin %) [2] [%] | EC50 [3] [nM]
Cc1ccc2c(Nc3cccc(Cl)c3F)nccc2c1NC(=O)c1csc2c(N)ncnc12 [Belvarafenib, reference compound] | < −30 | – | – | –
Cc1c(F)cccc1S(=O)(=O)Nc1ccc(F)c(Nc2ncnc3sc(-n4cc(C(=O)N5C6CCC5CN(C)C6)c5ccccc54)nc23)c1F [Example 44] | – | < 500 | 3 | < 300
N#CC1(c2cccc3c2ncn3-c2nc3c(Nc4c(F)ccc(NS(=O)(=O)c5cccc(Cl)c5Cl)c4F)ncnc3s2)CC1 [Example 122] | – | < 500 | 2 | < 300
